Test results: article PMC11428279, “Exploring Structure–Activity Relationships and Modes of Action of Laterocidine” (ACS Central Science, 2024)
Like-named read-outs stand apart in the source and are kept apart here. Bridge positions count the residues as written; N and C are the ends. Square brackets hold non-standard residues; d marks the D form. Peptide text beside a SMILES is read from it. * marks the point of attachment. Pen = CC(C)(S)[C@H](N)C(=O)O; dOrn = NCCC[C@@H](N)C(=O)O; Nonanoyl = CCCCCCCCC(=O)*; X2 = O=C(c1ccc(Cl)cc1Cl)*; Orn = NCCC[C@H](N)C(=O)O; Dap = NC[C@H](N)C(=O)O

Experiments:
A. baumannii = format: cell-based
Method: (§1) MICs for laterocidine and its various analogues were determined by broth microdilution[49] for the following polymyxin-susceptible ATCC and clinical isolates: P. aeruginosa FADDI-PA022, FADDI-PA001, FADDI-PA025, FADDI-PA070, FADDI-PA060; A. baumannii FADDI-AB134, FADDI-AB034, FADDI-AB030, FADDI-AB174, FADDI-AB241; K. pneumoniae FADDI-KP032, FADDI-KP022, BM1, FADDI-KP065, FADDI-KP064, FADDI-KP003; and E. cloacae FADDI-EC001, FADDI-EC003, and FADDI-EC006. Experiments were performed with cation-adjusted Mueller–Hinton broth (CAMHB) in 96-well polystyrene microtiter plates. Wells were inoculated with 100 μL of bacterial suspension prepared in CAMHB (containing ∼10^6 CFU/mL) and 100 μL of CAMHB containing increasing concentrations of polymyxins (0–32 μg/mL). MIC measurements were performed in duplicate, with the MIC being the lowest concentration at which visible growth was inhibited following 18–20 h of incubation at 37 °C. Bacterial killing kinetics was investigated over 24 h as described previously.[50]

[1] = system: Gram-negative strains of P. aeruginosa, A. baumannii, K. pneumoniae, and E. cloacae; format: cell-based
Method: as §1

[2] = compared with native laterocidine

| Structure (SMILES) | MICs against P. aeruginosa and A. baumannii (range) [1] [µg/mL] | fold increase in MIC (loss of activity) against all strains / all species [1, 2] | also measured |
| --- | --- | --- | --- |
| CC[C@H](C)[C@@H]1NC(=O)[C@@H](NC(=O)[C@H](Cc2c[nH]c3ccccc23)NC(=O)[C@@H](CCCN)NC(=O)CNC(=O)[C@H](CCCN)NC(=O)[C@@H](CCCN)NC(=O)[C@@H](Cc2c[nH]c3ccccc23)NC(=O)[C@@H](Cc2ccc(O)cc2)NC(=O)[C@@H](CO)NC(=O)c2ccc(Cl)cc2Cl)[C@@H](C)OC(=O)CNC(=O)CNC(=O)[C@H](CC(N)=O)NC1=O [Peptide 12] (X2-[dS][dY][dW][dOrn][Orn]G[dOrn]WTINGG; ester 9-C) | – | – | fold increase in MIC (loss of activity) against A. baumannii (A. baumannii; [2]): 4–8 fold |
| CC[C@H](C)[C@@H]1NC(=O)[C@@H](N)[C@@H](C)OC(=O)CNC(=O)CNC(=O)[C@H](CC(N)=O)NC1=O [Peptide 13] (HELM PEPTIDE1{[C[C@@H](O[*:3])[C@H](N)C(=O)[*:2]].I.N.G.G}$PEPTIDE1,PEPTIDE1,1:R3-5:R2$$$V2.0) | – | – | MICs against all tested strains (range) [1]: > 32 µg/mL |
| CC[C@H](C)[C@@H]1NC(=O)[C@@H](NC(=O)[C@H](Cc2c[nH]c3ccccc23)NC(=O)[C@@H](CCCN)NC(=O)CNC(=O)[C@H](CCCN)NC(=O)[C@@H](CCCN)NC(=O)[C@@H](Cc2c[nH]c3ccccc23)NC(=O)[C@@H](Cc2ccc(O)cc2)NC(=O)[C@H](N)CO)[C@@H](C)OC(=O)CNC(=O)CNC(=O)[C@H](CC(N)=O)NC1=O [Peptide 14] (H-[dS][dY][dW][dOrn][Orn]G[dOrn]WTINGG; ester 9-C) | – | – | MICs against all tested strains (range) [1]: > 32 µg/mL |
| CCCCCCCCC(=O)N[C@H](CO)C(=O)N[C@H](Cc1ccc(O)cc1)C(=O)N[C@H](Cc1c[nH]c2ccccc12)C(=O)N[C@H](CCCN)C(=O)N[C@@H](CCCN)C(=O)NCC(=O)N[C@H](CCCN)C(=O)N[C@@H](Cc1c[nH]c2ccccc12)C(=O)N[C@H]1CNC(=O)CNC(=O)CNC(=O)[C@H](CC(N)=O)NC(=O)[C@H]([C@@H](C)CC)NC1=O [Peptide 16] (Nonanoyl-[dS][dY][dW][dOrn][Orn]G[dOrn]W[Dap]INGG; lactam 9-C) | > 32 | – | – |
| CCCCCCCCC(=O)N[C@H](CO)C(=O)N[C@H](Cc1ccc(O)cc1)C(=O)N[C@H](Cc1c[nH]c2ccccc12)C(=O)N[C@H](CCCN)C(=O)N[C@@H](CCCN)C(=O)NCC(=O)N[C@H](CCCN)C(=O)N[C@@H](Cc1c[nH]c2ccccc12)C(=O)N[C@@H]1C(=O)N[C@@H]([C@@H](C)CC)C(=O)N[C@@H](CC(N)=O)C(=O)NCC(=O)NCC(=O)N[C@@H]1C [Peptide 17] | > 32 | – | – |
| CCCCCCCCC(=O)N[C@H](CO)C(=O)N[C@H](Cc1ccc(O)cc1)C(=O)N[C@H](Cc1c[nH]c2ccccc12)C(=O)N[C@H](CCCN)C(=O)N[C@@H](CCCN)C(=O)NCC(=O)N[C@H](CCCN)C(=O)N[C@@H](Cc1c[nH]c2ccccc12)C(=O)N[C@@H]1C(=O)N[C@@H]([C@@H](C)CC)C(=O)N[C@@H](CC(N)=O)C(=O)NCC(=O)N[C@H](C(=O)O)CSSC1(C)C [Peptide 18] (Nonanoyl-[dS][dY][dW][dOrn][Orn]G[dOrn]W[Pen]INGC-OH; disulfide 9-13; C-terminus assumed) | – | 2–8 fold | – |
| CCCCCCCCC(=O)N[C@H](CO)C(=O)N[C@H](Cc1ccc(O)cc1)C(=O)N[C@H](Cc1c[nH]c2ccccc12)C(=O)N[C@H](CCCN)C(=O)N[C@@H](CCCN)C(=O)NCC(=O)N[C@H](CCCN)C(=O)N[C@@H](Cc1c[nH]c2ccccc12)C(=O)N[C@H](C(=O)N[C@H](C(=O)N[C@@H](CC(N)=O)C(=O)NCC(=O)NCC(=O)O)[C@@H](C)CC)[C@@H](C)O [Peptide 19] (Nonanoyl-[dS][dY][dW][dOrn][Orn]G[dOrn]WTINGG-OH) | 8 to 32 | – | MICs against K. pneumoniae and E. cloacae (range) [1]: 4 to 32 µg/mL; fold increase in MIC for K. pneumoniae and E. cloacae [1, 2]: 2–4 fold; fold increase in MIC for P. aeruginosa and A. baumannii [1, 2]: 2–8 fold |
| CCCCCCCCC(=O)N[C@H](CO)C(=O)N[C@H](Cc1ccc(O)cc1)C(=O)N[C@H](Cc1c[nH]c2ccccc12)C(=O)N[C@H](CCCN)C(=O)N[C@@H](CCCN)C(=O)NCC(=O)N[C@H](CCCN)C(=O)N[C@@H](Cc1c[nH]c2ccccc12)C(=O)N[C@H](C(=O)N[C@H](C(=O)N[C@@H](CC(N)=O)C(=O)NCC(=O)NCC(N)=O)[C@@H](C)CC)[C@@H](C)O [Peptide 20] (Nonanoyl-[dS][dY][dW][dOrn][Orn]G[dOrn]WTINGG-NH2) | – | – | MICs against P. aeruginosa, K. pneumoniae, and E. cloacae (range) [1]: 4 to 32 µg/mL; fold increase in MIC against P. aeruginosa, K. pneumoniae, and E. cloacae [1, 2]: 2–4 fold |
| CCCCCCCCC(=O)N[C@H](CO)C(=O)N[C@H](Cc1ccc(O)cc1)C(=O)N[C@H](Cc1c[nH]c2ccccc12)C(=O)N[C@H](CCCN)C(=O)N[C@@H](CCCN)C(=O)NCC(=O)N[C@H](CCCN)C(=O)N[C@@H](Cc1c[nH]c2ccccc12)C(=O)N[C@H](C(=O)N[C@H](C(=O)N[C@@H](CC(N)=O)C(=O)NCC(N)=O)[C@@H](C)CC)[C@@H](C)O [Peptide 21] (Nonanoyl-[dS][dY][dW][dOrn][Orn]G[dOrn]WTING-NH2) | – | – | fold increase in MIC against P. aeruginosa, K. pneumoniae, and E. cloacae [1, 2]: 1–2 fold |
| CCCCCCCCC(=O)N[C@H](CO)C(=O)N[C@H](Cc1ccc(O)cc1)C(=O)N[C@H](Cc1c[nH]c2ccccc12)C(=O)N[C@H](CCCN)C(=O)N[C@@H](CCCN)C(=O)NCC(=O)N[C@H](CCCN)C(=O)N[C@@H](Cc1c[nH]c2ccccc12)C(=O)N[C@@H]1C(=O)N[C@@H]([C@@H](C)CC)C(=O)N[C@@H](CC(N)=O)C(=O)N[C@@H](C)C(=O)NCC(=O)O[C@@H]1C [Peptide 25] (Nonanoyl-[dS][dY][dW][dOrn][Orn]G[dOrn]WTINAG; ester 9-C) | 2 to 16 | no more than 1 fold | – |
| CCCCCCCCC(=O)N[C@H](CO)C(=O)N[C@H](Cc1ccc(O)cc1)C(=O)N[C@H](Cc1c[nH]c2ccccc12)C(=O)N[C@H](CCCN)C(=O)N[C@@H](CCCN)C(=O)NCC(=O)N[C@H](CCCN)C(=O)N[C@@H](Cc1c[nH]c2ccccc12)C(=O)N[C@@H]1C(=O)N[C@@H]([C@@H](C)CC)C(=O)N[C@@H](C)C(=O)NCC(=O)NCC(=O)O[C@@H]1C [Peptide 26] (Nonanoyl-[dS][dY][dW][dOrn][Orn]G[dOrn]WTIAGG; ester 9-C) | 2 to 16 | no more than 1 fold | – |
| CCCCCCCCC(=O)N[C@H](CO)C(=O)N[C@H](Cc1ccc(O)cc1)C(=O)N[C@H](Cc1c[nH]c2ccccc12)C(=O)N[C@H](CCCN)C(=O)N[C@@H](CCCN)C(=O)NCC(=O)N[C@H](C)C(=O)N[C@@H](Cc1c[nH]c2ccccc12)C(=O)N[C@@H]1C(=O)N[C@@H]([C@@H](C)CC)C(=O)N[C@@H](CC(N)=O)C(=O)NCC(=O)NCC(=O)O[C@@H]1C [Peptide 29] (Nonanoyl-[dS][dY][dW][dOrn][Orn]G[dA]WTINGG; ester 9-C) | – | 2–4 fold | – |
| CCCCCCCCC(=O)N[C@H](CO)C(=O)N[C@H](Cc1ccc(O)cc1)C(=O)N[C@H](Cc1c[nH]c2ccccc12)C(=O)N[C@H](CCCN)C(=O)N[C@@H](C)C(=O)NCC(=O)N[C@H](CCCN)C(=O)N[C@@H](Cc1c[nH]c2ccccc12)C(=O)N[C@@H]1C(=O)N[C@@H]([C@@H](C)CC)C(=O)N[C@@H](CC(N)=O)C(=O)NCC(=O)NCC(=O)O[C@@H]1C [Peptide 31] (Nonanoyl-[dS][dY][dW][dOrn]AG[dOrn]WTINGG; ester 9-C) | – | 2–8 fold | – |
| CCCCCCCCC(=O)N[C@H](CO)C(=O)N[C@H](Cc1ccc(O)cc1)C(=O)N[C@H](Cc1c[nH]c2ccccc12)C(=O)N[C@H](C)C(=O)N[C@@H](CCCN)C(=O)NCC(=O)N[C@H](CCCN)C(=O)N[C@@H](Cc1c[nH]c2ccccc12)C(=O)N[C@@H]1C(=O)N[C@@H]([C@@H](C)CC)C(=O)N[C@@H](CC(N)=O)C(=O)NCC(=O)NCC(=O)O[C@@H]1C [Peptide 32] (Nonanoyl-[dS][dY][dW][dA][Orn]G[dOrn]WTINGG; ester 9-C) | – | 2–8 fold | – |
| CCCCCCCCC(=O)N[C@H](CO)C(=O)N[C@H](Cc1ccc(O)cc1)C(=O)N[C@H](C)C(=O)N[C@H](CCCN)C(=O)N[C@@H](CCCN)C(=O)NCC(=O)N[C@H](CCCN)C(=O)N[C@@H](Cc1c[nH]c2ccccc12)C(=O)N[C@@H]1C(=O)N[C@@H]([C@@H](C)CC)C(=O)N[C@@H](CC(N)=O)C(=O)NCC(=O)NCC(=O)O[C@@H]1C [Peptide 33] (Nonanoyl-[dS][dY][dA][dOrn][Orn]G[dOrn]WTINGG; ester 9-C) | – | – | MICs against A. baumannii (range over strains) (A. baumannii; summary of Tables 1 and 2): > 32 µg/mL |
| CCCCCCCCC(=O)N[C@H](CO)C(=O)N[C@H](C)C(=O)N[C@H](Cc1c[nH]c2ccccc12)C(=O)N[C@H](CCCN)C(=O)N[C@@H](CCCN)C(=O)NCC(=O)N[C@H](CCCN)C(=O)N[C@@H](Cc1c[nH]c2ccccc12)C(=O)N[C@@H]1C(=O)N[C@@H]([C@@H](C)CC)C(=O)N[C@@H](CC(N)=O)C(=O)NCC(=O)NCC(=O)O[C@@H]1C [Peptide 34] (Nonanoyl-[dS][dA][dW][dOrn][Orn]G[dOrn]WTINGG; ester 9-C) | – | – | MICs against A. baumannii (range over strains) (A. baumannii): ≥ 32 µg/mL |
